According to US11638719B2, “Product for obesity treatment” (YEDITEPE UNIVERSITESI, priority 2017, dated 2023):

What was measured:
Format in all cases: cell-based
[1] = test system: human adipose stem cells (hASCs); test: Cytotoxicity analysis, cell viability by MTS assay; conditions: NaB 20 μg/ml; for cell viability: MTS
Method: Cytotoxicity of Pluronic® F68 and NaB were dissolved and tested at 7 different concentrations in DMEM ([…], 0.7%, 0.5%, 0.3%, 0.1%, 0.05%, 0.01% (w/v) for F68 and 5, 10, 20, 50, 100, 200 and 300 ug/ml for NaB).
HASCs were seeded into 96-well culture plates (Corning Plasticware, Corning, N.Y., cat. no. CLS3360) at 5,000 cells/well. The next day, the cells were treated with F68 and NaB solutions that were prepared at different concentrations. In accordance with the manufacturer's instructions, cell viability was measured by the MTS assay (Promega, Southampton, UK CellTiter 96 AqueousOne solution). After 24, 48 and 72 hours of incubation, 10 ul of MTS reagent and 100 ul of DMEM medium were applied to the cells and then, after incubation at 37° C. for 2 hours, their absorbances at […] were measured with the ELISA plate reader (BioTek Instruments, Inc., Vt., USA).

[2] = test system: PPARγ, FABP4 and adiponectin gene expression in human adipose stem cells; test: RT-PCR analysis of adipogenesis-promoting gene expression after adipocyte differentiation; conditions: F68 0.05%, NaB 20 μg/ml, alone or combined; 10 days adipogenic differentiation; compared to positive control; normalized to GAPDH
Method: (§1) The cells were seeded into 6-well culture plates at 100,000 cells/well in an adipogenic differentiation medium. Content of the medium was as follows. 10% (v/v) FBS, 1 uM dexamethasone, 100 uM indomethacin (Sigma, USA), 500 uM IBMX (Calbiochem Merck Millipore, Germany) and 0.01 mg/mL insulin (Gibco, UK). 5 different groups were prepared; only F68, only NaB, F68 and NaB combination, PC and NC. Adipogenic differentiation was applied for 10 days by changing the medium every other day. While only DMEM, 10% (v/v) FBS and 1% (v/v) PSA were applied to the negative control group, the positive control group was cultured with adipogenic differentiation medium.
Following differentiation, RNA isolation was carried out using High Pure RNA Isolation Kit (Roche, Germany) in accordance with the manufacturer's instructions. After performance of cDNA synthesis (High Fidelity cDNA synthesis kit, Roche, Germany) from isolated RNA samples, RT-PCR was performed in three replicates using iCycler RT-PCR detection system (Bio-Rad, Hercules, Calif.). Synthesis levels were normalized to GAPDH.
For each sample the fold changes in the expression levels were determined using the method 2 (-Delta Delta C (t)).

[3] = test system: PPARγ, FABP4 and adiponectin protein expression in human adipose stem cells; test: Immunocytochemical analysis of PPARγ, FABP4 and adiponectin proteins after adipocyte differentiation; conditions: F68 0.05%, NaB 20 μg/ml, alone or combined at the same ratios; compared to positive control
Method: as §1
Human adipose stem cells were seeded into 48-well plates at 8,000 cells/well. Following the differentiation experiment, the cells were fixed in 2% (w/v) paraformaldehyde at 4° C. for 30 minutes and then blocked with 2% (v/v) goat serum (Sigma, USA) for 20 minutes. The cells incubated at 4° C. overnight with PPAR-γ (ab8934, Abcam, UK, 1: 100), FABP4 (SC-30088, Santa Cruz Biotechnology, Tex., USA, 1:100) and adiponectin (ab22554, Abcam, UK, 1:50) primary antibodies were then incubated with secondary antibodies (goat anti-rabbit IgG Alexa Fluor 488, goat anti-mouse IgGAlexaFluor 488, 1:1000) at 4° C. for 2 hours. […] Immunocytochemical analysis results were observed under fluorescence microscope (NiconEclipse TE200). […]

[4] = test system: human adipose stem cells (hASCs); test: 'Oil Red O' staining of fat accumulation after adipocyte differentiation; conditions: F68 0.05%, NaB 20 μg/ml, alone or combined; 10 days adipogenic differentiation; compared to positive control
Method: as §1
The ‘Oil Red O’ solution was prepared by dissolving 0.5 grams of ‘Oil Red O’ (Sigma, USA) in 100 ml of isopropanol. After being fixed with 2% paraformaldehyde (weight/volume) for 30 minutes, the cells were incubated in ‘Oil Red O’ solution (diluted in PBS at 6:4) for 1 hour. The cells were observed under light microscope.
Statistical analysis of the results was performed with the unpaired t-test and the graphs were drawn using GraphPad Prism 5 software Statistical significance was accepted as p<0.05. In addition, a graphical representation of the results obtained from immunocytochemistry and ‘Oil red O’ staining was obtained using the Adobe Creative Suite 6 program

sodium pentaborate pentahydrate [NaB]
cell viability ([1]; end of day 1, hASCs): 101% | cell viability ([1]; end of day 2, hASCs): 106% | cell viability ([1]; end of day 3, hASCs): 109% | cytotoxicity of the dosage used ([1]; hASCs): non-cytotoxic | expression levels of PPARγ, FABP4 and adiponectin genes [2]: increased significantly | PPARγ, FABP4 and adiponectin protein expression levels [3]: higher than that of positive control | amount of fat accumulation in the cells [4]: increased the amount of fat accumulation
